Values joined by “and” are separate entries in the source; they are usually repeats but may differ in a detail not shown here. Equal values may be shown once.
Assay: xn = mol fraction of the nth substance listed

C1COCCO1 + O
Settings	viscosity
293.15 K, 101.3 kPa, x2 = 0.0459	1.306 mPa·s
293.15 K, 101.3 kPa, x2 = 0.09407	1.32 mPa·s
293.15 K, 101.3 kPa, x2 = 0.2053	1.399 mPa·s and 1.4 mPa·s
293.15 K, 101.3 kPa, x2 = 0.3758	1.621 mPa·s and 1.619 mPa·s
293.15 K, 101.3 kPa, x2 = 0.5701	1.982 mPa·s and 1.981 mPa·s
293.15 K, 101.3 kPa, x2 = 0.7952	2.264 mPa·s and 2.263 mPa·s
293.15 K, 101.3 kPa, x2 = 0.8661	2.06 mPa·s
293.15 K, 101.3 kPa, x2 = 0.9391	1.577 mPa·s and 1.576 mPa·s
293.15 K, 101.3 kPa, x2 = 0.9742	1.258 mPa·s and 1.259 mPa·s
293.15 K, 101.33 kPa, x1 = 0.0222	1.221 mPa·s
293.15 K, 101.33 kPa, x1 = 0.0486	1.464 mPa·s
293.15 K, 101.33 kPa, x1 = 0.0806	1.728 mPa·s
293.15 K, 101.33 kPa, x1 = 0.12	1.984 mPa·s
293.15 K, 101.33 kPa, x1 = 0.143	2.092 mPa·s
293.15 K, 101.33 kPa, x1 = 0.17	2.183 mPa·s
293.15 K, 101.33 kPa, x1 = 0.2	2.246 mPa·s
293.15 K, 101.33 kPa, x1 = 0.235	2.268 mPa·s
293.15 K, 101.33 kPa, x1 = 0.25	2.266 mPa·s
293.15 K, 101.33 kPa, x1 = 0.275	2.252 mPa·s
293.15 K, 101.33 kPa, x1 = 0.323	2.185 mPa·s
293.15 K, 101.33 kPa, x1 = 0.334	2.151 mPa·s
293.15 K, 101.33 kPa, x1 = 0.38	2.072 mPa·s
293.15 K, 101.33 kPa, x1 = 0.45	1.927 mPa·s
293.15 K, 101.33 kPa, x1 = 0.5	1.817 mPa·s
293.15 K, 101.33 kPa, x1 = 0.537	1.758 mPa·s
293.15 K, 101.33 kPa, x1 = 0.648	1.569 mPa·s
293.15 K, 101.33 kPa, x1 = 0.716	1.478 mPa·s
293.15 K, 101.33 kPa, x1 = 0.795	1.396 mPa·s
293.15 K, 101.33 kPa, x1 = 0.846	1.349 mPa·s
293.15 K, 101.33 kPa, x1 = 0.918	1.312 mPa·s
298 K, 101 kPa, x2 = 0.5236	1.647 mPa·s
298 K, 101 kPa, x2 = 0.6752	1.886 mPa·s
298 K, 101 kPa, x2 = 0.7636	1.965 mPa·s
298 K, 101 kPa, x2 = 0.88	1.701 mPa·s
298 K, 101 kPa, x2 = 0.9514	1.271 mPa·s
298.15 K, 101 kPa, x1 = 0.141	1.784 mPa·s
298.15 K, 101 kPa, x1 = 0.271	1.923 mPa·s
298.15 K, 101.3 kPa, x2 = 0.0459	1.196 mPa·s
298.15 K, 101.3 kPa, x2 = 0.09407	1.207 mPa·s
298.15 K, 101.3 kPa, x2 = 0.2053	1.275 mPa·s and 1.274 mPa·s
298.15 K, 101.3 kPa, x2 = 0.3758	1.458 mPa·s
298.15 K, 101.3 kPa, x2 = 0.5701	1.761 mPa·s
298.15 K, 101.3 kPa, x2 = 0.7952	1.976 mPa·s and 1.975 mPa·s
298.15 K, 101.3 kPa, x2 = 0.8661	1.796 mPa·s
298.15 K, 101.3 kPa, x2 = 0.9391	1.38 mPa·s and 1.381 mPa·s
298.15 K, 101.3 kPa, x2 = 0.9742	1.109 mPa·s and 1.108 mPa·s
298.15 K, 101.33 kPa, x1 = 0.0222	1.076 mPa·s
298.15 K, 101.33 kPa, x1 = 0.0486	1.283 mPa·s
298.15 K, 101.33 kPa, x1 = 0.0806	1.508 mPa·s
298.15 K, 101.33 kPa, x1 = 0.12	1.728 mPa·s
298.15 K, 101.33 kPa, x1 = 0.143	1.822 mPa·s
298.15 K, 101.33 kPa, x1 = 0.17	1.901 mPa·s
298.15 K, 101.33 kPa, x1 = 0.2	1.957 mPa·s
298.15 K, 101.33 kPa, x1 = 0.235	1.98 mPa·s
298.15 K, 101.33 kPa, x1 = 0.25	1.983 mPa·s
298.15 K, 101.33 kPa, x1 = 0.275	1.96 mPa·s
298.15 K, 101.33 kPa, x1 = 0.323	1.917 mPa·s
298.15 K, 101.33 kPa, x1 = 0.334	1.894 mPa·s
298.15 K, 101.33 kPa, x1 = 0.38	1.831 mPa·s
298.15 K, 101.33 kPa, x1 = 0.45	1.715 mPa·s
298.15 K, 101.33 kPa, x1 = 0.5	1.623 mPa·s
298.15 K, 101.33 kPa, x1 = 0.537	1.572 mPa·s
298.15 K, 101.33 kPa, x1 = 0.648	1.414 mPa·s
298.15 K, 101.33 kPa, x1 = 0.716	1.336 mPa·s
298.15 K, 101.33 kPa, x1 = 0.795	1.274 mPa·s
298.15 K, 101.33 kPa, x1 = 0.846	1.23 mPa·s
298.15 K, 101.33 kPa, x1 = 0.918	1.2 mPa·s
298.15 K, 101.33 kPa, x2 = 0.1129	1.222 mPa·s
298.15 K, 101.33 kPa, x2 = 0.21	1.291 mPa·s
298.15 K, 101.33 kPa, x2 = 0.3108	1.384 mPa·s
298.15 K, 101.33 kPa, x2 = 0.4096	1.51 mPa·s
298.15 K, 101.33 kPa, x2 = 0.4986	1.629 mPa·s
298.15 K, 101.33 kPa, x2 = 0.6059	1.797 mPa·s
298.15 K, 101.33 kPa, x2 = 0.6983	1.913 mPa·s
298.15 K, 101.33 kPa, x2 = 0.8288	1.857 mPa·s
298.15 K, 101.33 kPa, x2 = 0.9021	1.57 mPa·s
303.1 K, 101 kPa, x2 = 0.228	1.147 mPa·s
303.1 K, 101 kPa, x2 = 0.2741	1.174 mPa·s
303.1 K, 101 kPa, x2 = 0.4187	1.261 mPa·s
303.1 K, 101 kPa, x2 = 0.7038	1.709 mPa·s
303.1 K, 101 kPa, x2 = 0.8099	1.733 mPa·s
303.1 K, 101 kPa, x2 = 0.8346	1.661 mPa·s
303.1 K, 101 kPa, x2 = 0.8791	1.543 mPa·s
303.1 K, 101 kPa, x2 = 0.9194	1.35 mPa·s
303.1 K, 101 kPa, x2 = 0.9508	1.162 mPa·s
303.1 K, 101 kPa, x2 = 0.9786	0.968 mPa·s
303.15 K, 101.3 kPa, x2 = 0.0459	1.098 mPa·s
303.15 K, 101.3 kPa, x2 = 0.09407	1.108 mPa·s and 1.107 mPa·s

— the CheMixHub viscosity set
